# In patent publication EP1500403A1, “PREVENTIVE/REMEDY FOR DIABETES” (Ajinomoto Co., Inc., priority 2002, dated 2003):
# Columns and labels:
# Format in all cases: in vivo
# glucose-loaded rats = experiment: Blood glucose time course after oral glucose loading in rats (Example I); conditions: Wistar rats, glucose 1 g/kg p.o.
# Method: Wistar rats (age of 7 weeks; male) were divided into groups with matched body weights. After 17-hour starvation, glucose was orally given at 1 g/kg to the animals. Immediately after the administration, the inhibitor A of renal glucose reabsorption or the inhibitor B of renal glucose reabsorption (A at 30 mg/kg or 60 mg/kg; B at 30 mg/kg or 80 mg/kg) or glibenclamide (1 mg/kg or 2 mg/kg) or nateglinide (50 mg/kg or 80 mg/kg) was orally given. Additionally, a group on the combined use of both of an inhibitor of renal glucose reabsorption and a hypoglycemic agent was also prepared. A vehicle was orally given to a control group after glucose administration.
# Blood glucose was measured in a time course.
# [1] = test system: Type 2 diabetes model db/db mice; experiment: Nateglinide load test after repeated dosing in db/db mice (Example IV); conditions: for Blood glucose level 30 minutes after loading / Blood glucose level 120 minutes after loading / Blood glucose level before loading: db/db mice, compound successively dosed 80 mg/kg p.o. twice daily, day 25, Mean ± SD, N = 5; for Blood glucose level 30 minutes after loading / Blood glucose level 120 minutes after loading: loading with glucose 1 g/kg and nateglinide 50 mg/kg p.o.; for Blood glucose level before loading: starved 17 hours, nateglinide load test
# Method: Type 2 diabetes model db/db mice (age 6 weeks) were fed and kept with a feed twice daily over one hour starting 9 am and one hour starting 3 pm, for one week. Then, the mice were divided into groups with matched blood glucose levels and body weights. Subsequently, the inhibitor B of renal glucose reabsorption at 80 mg/kg or nateglinide at 80 mg/kg was orally given, immediately before feeding twice daily. Only a vehicle was orally given immediately before feeding twice daily to the animals of a control group. On day 25 from the start of administration, the mice of the individual experimental groups were starved for 17 hours and then orally given glucose (1 g/kg) and nateglinide (50 mg/kg). Blood glucose levels were measured before and after the administration, to examine whether or not the hypoglycemic action of nateglinide could be observed (nateglinide load test).
# Male Wistar rats [2] = experiment: Assessment of excretion action of urine sugar in rat (Test Example 1B); conditions: Oral Administration in Rat (24 hours)
# Method: Male Wistar rats aged 5 weeks (purchased from Charles River Japan, Inc.) were acclimatized in metabolic cages for one week, for use at this experiment. The test compounds suspended in olive oil were prepared into solutions to a dose of 5 ml per 1 kg rat body weight. After the rats were starved for 4 hours, the test compounds were orally given at 10, 30 and 100 mg/kg to the rats at 11 am. Immediately after dosing until 24 hours later, urine was collected. The volume of urine was measured. Then, urine glucose concentration was assayed by glucose oxidase method, to calculate the glucose excretion into urine per individual per day. As a positive control, 3-(5-benzo[b]furanyl)-2'-(6-o-methoxycarbonyl-β-D-glucopyranosyldxy)-6'-hydroxy-4'-methylpropiophenone [under a different name of 3-(benzo[b]furan-5-yl)-2', 6'-dihydroxy-4'-methylpropiophenone 2'-o-(6-o-methoxycarbonyl-β-D-glucopyranoside)] was used.
# Male Wistar rats [3] = experiment: Assessment of excretion action of urine sugar in rat (Test Example 2A); conditions: urine collected 24 hours
# Method: Male Wistar rats aged 5 weeks (purchased from Charles River Japan, Inc.) were acclimatized in metabolic cages for one week, for use at this experiment. The test compounds suspended in olive oil were dosed at 5 ml per 1 kg rat body weight.
# After the rats were starved for 4 hours, the test compounds were orally given to the rats at 11 am. Immediately after dosing until 24 hours later, urine was collected. The volume of urine was measured. Then, urine sugar concentration was assayed by glucose oxidase method, to calculate the glucose excretion into urine per individual per day.
# [4] = test system: Type 2 diabetic model GK rats; experiment: Blood glucose after repeated once daily dosing in GK rats (Example III); conditions: once daily p.o., vs vehicle-dosed group (Fig. 4)
# Method: These agents were orally given once daily at the same time period as in the group administered with a single one agent. Only a vehicle was given orally to a control group. On day 25 after the start of administration, blood glucose was assayed sequentially, to compare the groups in terms of the resulting blood glucose levels.
# glucose-loaded mice = experiment: Blood glucose time course after oral glucose loading in KK mice (Example II); conditions: glucose 1 g/kg p.o.
# Method: KK mice (age of 25 weeks; male) fed with a commercially available high-calories feed for breeding (CMF; Oriental Yeast) were divided into groups with matched body weights. After starvation for 17 hours, glucose was orally given at 1 g/kg. Immediately thereafter, the inhibitor A of renal glucose reabsorption (30 mg/kg or 45 mg/kg) or metformin (200 mg/kg or 300 mg/kg) was orally given. Additionally, a group given with the inhibitor A of renal glucose reabsorption (30 mg/kg) and metformin (200 mg/kg) was prepared. A vehicle was orally given to a control group after glucose dosing.
# Blood glucose level was assayed in a time course.
# [5] = test system: Type 2 diabetes model Zucker diabetic fatty rats; experiment: Insulin content in pancreas after repeated dosing in Zucker diabetic fatty rats, ELISA (Example V); conditions: twice daily p.o., day 39, starved 18 hours, inhibitor A 30 mg/kg, metformin 200 mg/kg, or both, ELISA of pancreas homogenates (Fig. 5)
# Method: The agents were orally given twice daily at the same time period as in the case of the groups administered with a single one of these agents. Only a vehicle was orally given twice daily to the animals in a control group. On day 39 from the start of administration, the animals were starved for 18 hours. Then, pancreas was resected from the animals, for the assay of insulin in pancreas homogenates by ELISA, to compare the groups in terms of insulin content in pancreas.
# [6] = nateglinide 50 mg/kg, inhibitor B 30 mg/kg, or both, p.o., vs vehicle group (Fig. 2)
# [7] = nateglinide 80 mg/kg or inhibitor B 80 mg/kg p.o., vs lower dose (Fig. 2)
# [8] = Dose 100 mg/kg p.o. in olive oil
# [9] = glibenclamide 1 mg/kg, inhibitor A 30 mg/kg, or both, p.o., vs vehicle group (Fig. 1)
smiles,measurement,setting,value
COC(=O)OC[C@H]1O[C@@H](Oc2cc(C)cc(O)c2C(=O)CCc2ccc3occc3c2)[C@H](O)[C@@H](O)[C@@H]1O [3-(5-benzo[b]furanyl)-2'-(6-o-methoxycarbonyl-β-D-glucopyranosyloxy)-6'-hydroxy-4'-methylpropiophenone],blood glucose level 180 minutes after glucose loading and thereafter,"glucose-loaded rats; inhibitor B 30 mg/kg alone or with nateglinide 50 mg/kg, p.o., vs vehicle group (Fig. 2)",lower than that in the vehicle-dosed group
same,hyperglycemia / blood glucose level 30 minutes after glucose loading,glucose-loaded rats; [6],not reduced as greatly as in the case of nateglinide
same,pattern of glycemic suppression at increased dose,glucose-loaded rats; [7],pattern of glycemic suppression was also observed
same,"hyperglycemia due to glucose loading, 30 minutes after loading with glucose and nateglinide","[1]; db/db mice given inhibitor B 80 mg/kg twice daily long-term, compared with vehicle-dosed and nateglinide-dosed groups",greatly suppressed hyperglycemia
same,Blood glucose level 30 minutes after loading,[1],172 ± 14 mg/dL
same,Blood glucose level 120 minutes after loading,[1],103 ± 5 mg/dL
same,Blood glucose level before loading,[1],131 ± 6 mg/dL
same,Excreted urine sugar,Male Wistar rats [2]; Dose 10 mg/kg,2 mg
same,Excreted urine sugar,Male Wistar rats [2]; Dose 30 mg/kg,78 mg
same,Excreted urine sugar,Male Wistar rats [2]; Dose 100 mg/kg,274 mg
Cc1[nH]nc(O[C@@H]2O[C@H](CO)[C@@H](O)[C@H](O)[C@H]2O)c1Cc1ccc(OC(C)C)cc1 [4-[(4-isopropoxyphenyl)methyl)-5-methyl-1H-pyrazole-3-o-β-D-glucopyranoside],Excreted urine sugar,Male Wistar rats [3]; [8],14 mg
"CCc1ccc(Cc2c(O[C@@H]3O[C@H](COC(=O)OC)[C@@H](O)[C@H](O)[C@H]3O)nn(C(CF)CF)c2C(F)(F)F)cc1 [Compound of Production Example 2B, 4'-[(4'-ethylphenyl)methyl]-1'-(1',3'-difluoro-2'-propyl) -5'-(trifluoromethyl) -1H-pyrazole-3'-o-(6-o-methoxycarbonyl-β-D-glucopyranoside)]",Excreted urine sugar,Male Wistar rats [2]; Dose 10 mg/kg,136 mg
same,Excreted urine sugar,Male Wistar rats [2]; Dose 30 mg/kg,272 mg
same,Excreted urine sugar,Male Wistar rats [2]; Dose 100 mg/kg,524 mg
"CCc1ccc(Cc2c(O[C@@H]3O[C@H](COC(=O)OC)[C@@H](O)[C@H](O)[C@H]3O)nn(Cc3ccccc3)c2C(F)(F)F)cc1 [Compound of Production Example 4-A, 4'-[(4'-ethylphenyl)methyl]-1'-benzyl-5'-trifluoromethyl-1H-pyrazole-3'-o-(6-carbomethoxy)-β-D-glucopyranoside]",Excreted urine sugar,Male Wistar rats [3]; [8],27 mg
"CCc1ccc(Cc2c(O[C@@H]3O[C@H](COC(=O)OC)[C@@H](O)[C@H](O)[C@H]3O)nn(Cc3ccc(OC)cc3)c2C(F)(F)F)cc1 [Compound of Production Example 6-A, 4'-[(4'-ethylphenyl)methyl]-1'-[(4'-methoxyphenyl)methyl]-5'-trifluoromethyl-1H-pyrazole-3'-o-(6-carbomethoxy)-β-D-glucopyranoside]",Excreted urine sugar,Male Wistar rats [3]; [8],59 mg
"CCc1ccc(Cc2c(O[C@@H]3O[C@H](COC(=O)OC)[C@@H](O)[C@H](O)[C@H]3O)nn(-c3ccccc3)c2C(F)(F)F)cc1 [Compound of Production Example 8-A, 4'-[(4'-ethylphenyl)methyl]-1'-phenyl-5'-trifluoromethyl-1H-pyrazole-3'-o-(6-carbomethoxy)-β-D-glucopyranoside]",Excreted urine sugar,Male Wistar rats [3]; [8],4.1 mg
"COC(=O)OC[C@H]1O[C@@H](Oc2nn(C(C)C)c(C)c2Cc2ccc(OC)c(F)c2)[C@H](O)[C@@H](O)[C@@H]1O [Compound of Production Example 10-A, 4'-[(3'-fluoro-4'-methoxyphenyl)methyl]-1'-isopropyl-5'-methyl-1H-pyrazole-3'-o-(6-carbomethoxy)-β-D-glucopyranoside]",Excreted urine sugar,Male Wistar rats [3]; [8],734 mg
"COC(=O)OC[C@H]1O[C@@H](Oc2nn(C(C)C)c(C)c2Cc2ccc(C)c(F)c2)[C@H](O)[C@@H](O)[C@@H]1O [Compound of Production Example 14-A, 4'-[(3'-fluoro-4'-methylphenyl)methyl]-1'-isopropyl-5'-methyl-1H-pyrazole-3'-o-(6-carbomethoxy)-β-D-glucopyranoside]",Excreted urine sugar,Male Wistar rats [3]; [8],918 mg
"CCc1ccc(Cc2c(O[C@@H]3O[C@H](COC(=O)OC)[C@@H](O)[C@H](O)[C@H]3O)nn(C(C)C)c2C)cc1 [Compound of Production Example 16-A, 4'-[(4-ethylphenyl)methyl]-1'-isopropyl-5'-methyl-1H-pyrazole-3'-o-(6-carbomethoxy)-β-D-glucopyranoside]",Excreted urine sugar,Male Wistar rats [3]; Dose 3 mg/kg p.o. in olive oil,28 mg
same,Excreted urine sugar,Male Wistar rats [3]; Dose 10 mg/kg p.o. in olive oil,263 mg
same,Excreted urine sugar,Male Wistar rats [3]; Dose 30 mg/kg p.o. in olive oil,294 mg
same,Excreted urine sugar,Male Wistar rats [3]; [8],598 mg
COc1ccc(Cl)cc1C(=O)NCCc1ccc(S(=O)(=O)NC(=O)NC2CCCCC2)cc1 [glibenclamide],blood glucose level 120 minutes after glucose loading and thereafter,glucose-loaded rats; [9],lowered blood glucose
same,hyperglycemia / blood glucose level immediately after glucose loading (30 minutes),glucose-loaded rats; [9],did not suppress hyperglycemia
same,pattern of glycemic suppression at increased dose,"glucose-loaded rats; glibenclamide 2 mg/kg or inhibitor A 60 mg/kg p.o., vs lower dose (Fig. 1)",did not change
same,blood glucose level,"[4]; day 25, glibenclamide 3 mg/kg, inhibitor A 30 mg/kg, or both",no difference was observed from the vehicle-dosed group
same,blood glucose level,"[4]; day 25, glibenclamide 6 mg/kg",did not produce any difference in blood glucose level from the vehicle-dosed group
CN(C)C(=N)N=C(N)N [metformin],increase of blood glucose / hyperglycemia 30 minutes after glucose loading,"glucose-loaded mice; metformin 200 mg/kg or inhibitor A 30 mg/kg p.o., vs control group (Fig. 3)",did not suppress the increase of blood glucose
same,increase of blood glucose 60 minutes later and thereafter,glucose-loaded mice; metformin 200 mg/kg p.o. (Fig. 3),suppressed the increase
same,pattern of glycemic suppression at elevated dose,"glucose-loaded mice; metformin 300 mg/kg or inhibitor A 45 mg/kg p.o., vs lower dose (Fig. 3)",did not change
same,insulin content in pancreas,[5],no difference was observed
CC(C)[C@H]1CC[C@H](C(=O)N[C@H](Cc2ccccc2)C(=O)O)CC1 [nateglinide],blood glucose level 120 minutes after glucose loading and thereafter,"glucose-loaded rats; nateglinide 50 mg/kg p.o., vs vehicle-dosed group (Fig. 2)",did not lower the blood glucose level
same,hyperglycemia / blood glucose level 30 minutes after glucose loading,glucose-loaded rats; [6],more highly suppressed hyperglycemia
same,hyperglycemia / blood glucose level 60 minutes after glucose loading,glucose-loaded rats; [6],more highly suppressed hyperglycemia
same,pattern of glycemic suppression at increased dose,glucose-loaded rats; [7],did not change
same,Blood glucose level 30 minutes after loading,[1],259 ± 18 mg/dL
same,Blood glucose level 120 minutes after loading,[1],144 ± 20 mg/dL
same,Blood glucose level before loading,[1],158 ± 12 mg/dL
